Positions count from the first letter of the chain named. One block for each molecule: values may come before it.
How the values were obtained:
Aurora A [1] = molecular target: T1, Aurora A (Homo sapiens, UniProt O14965); assay: mant-ATP binding kinetics by stopped-flow FRET from Trp, with global fit; conditions: 10°C
T1 construct: made in house; host or cells: E. coli BL21(DE3)
T1 sequence (O14965 122-403): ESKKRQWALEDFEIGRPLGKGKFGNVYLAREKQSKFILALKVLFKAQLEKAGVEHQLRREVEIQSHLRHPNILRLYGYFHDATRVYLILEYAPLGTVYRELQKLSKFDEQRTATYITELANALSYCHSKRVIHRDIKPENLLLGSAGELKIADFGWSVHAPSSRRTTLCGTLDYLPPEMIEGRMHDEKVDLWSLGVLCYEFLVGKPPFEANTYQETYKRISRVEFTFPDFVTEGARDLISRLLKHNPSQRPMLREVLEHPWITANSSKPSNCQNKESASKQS
Procedure: Inhibitor binding followed by an induced-fit step:(3) Eout+ I⇌koffkonEout⋅I⇌k−3k3Eout∗⋅I K2K3KD=K2∗K3/(K3+1)
FRET using intrinsic tryptophan fluorescence is used to monitor mant-ATP (obtained from Jena Bioscience) binding kinetics to Aurora A at 10°C. In the binding experiment or kon , increasing concentration of mant-ATP were quickly mixed to 0.5 µM Aurora A (ratio 1:10, excitation at 295 nm, emission cut-off at 395 nm). In the experiment to measure the release of mant-ATP or koff , 10 µM/10 µM Aurora A/mant-ATP complex was diluted with buffer (ratio 1:10). A significant decrease in the fluorescence intensity of Aurora A (excitation at 295 nm, emission cut-off at 395 nm) can be seen due to the mant-ATP release.

[2] = molecular target: T2, dephosphorylated Aurora A (Homo sapiens, UniProt O14965); assay: Stopped-flow intrinsic tryptophan fluorescence drug binding kinetics
T2 construct: made in house; host or cells: E. coli BL21(DE3)
T2 sequence (O14965 122-403): T1 sequence (O14965 122-403)
Procedure: (§1) The rapid kinetics were studied using a stopped-flow spectrophotometer (SX20 series from Applied Photophysics Ltd). The flow system was made anaerobic by rinsing with degassed buffer comprised of 50 mM HEPES, 50 mM NaCl, 20 mM MgCl2, 5 mM TCEP, 5% DMSO, pH 7.30 to minimize photobleaching. The stock solutions of Aurora A and all drugs were made anaerobic by degassing with ThermoVac (MicroCal) at the desired temperature. In general, a solution of 5 μM Aurora A was loaded in one syringe and quickly mixed with drug, prepared in the same buffer, in the other syringe (mixing ratio 1:10). […] For each drug concentration, at least five replicate measurements were made and these transients were averaged. Analysis was performed by fitting the individual trace to exponential equations using Pro-Data Viewer (Applied Photophysics Ltd) or with Kinesyst 3 software (TgK Scientific) and error bars denote the standard errors as obtained from the fit. KaleidaGraph version 4.5.3 (Synergy) was used for data analysis and plotting.
The approximate values of k1 and k−1 obtained from fitting to this equation are used as starting values for the global fit.

Aurora A [3] = molecular target: T1, Aurora A; assay: Global fit of binding and dissociation kinetics (KinTek Explorer) and constants calculated from microscopic rate constants; conditions: for weakening of overall affinity by the DFG-in and -out equilibrium: DFG-out binders
Procedure: as §1

Aurora C = system: Aurora C; set-up: method as in Carpinelli et al., 2007; Fraedrich et al., 2012; conditions: ref Carpinelli et al., 2007; Fraedrich et al., 2012; cited from earlier work
Aurora B = conditions: ref Howard et al., 2009; cited from earlier work
[4] = molecular target: T3, Biotinylated T288V Aurora A (Homo sapiens, UniProt O14965, T288V); assay: Creoptix WAVE waveguide interferometry (double jump, slow-off, macroscopic KD); format: binding; conditions: 25°C; complex formed after 1 hour of incubation
T3 construct: made in house
T3 sequence (O14965 122-403 T288V): T1 sequence (O14965 122-403) with T167V
Procedure: All chemicals were purchased from GE Healthcare, unless otherwise stated. The protocols in the WAVE control software for conditioning of the chip, immobilization of proteins and performing kinetics experiments were followed. In short, the polycarboxylate chip (PCH) was activated by injection of a 1:1 mixture with final concentrations of 200 mM N-ethyl-N’-(3-dimethylaminopropyl)carbodiimide (EDC) and 50 mM N-hydroxysuccinimide (NHS), followed by streptavidin immobilization (50 μg/mL in 10 mM sodium acetate pH 5.0). Unreacted sites on the chip were blocked with 1 M ethanolamine pH 8.0. For all activation, immobilization and passivation steps 0.2x HBS-EP was used as running buffer with a flowrate of 10 μL/min and an injection duration of 420 s on both channels 1 and 2.
All experiments were run in 50 mM HEPES, 50 mM NaCl, 20 mM MgCl2, 5 mM TCEP, 0.03 mg/mL BSA, 0.005% Tween-20, pH 7.30 as running buffer.

[5] = molecular target: the molecule itself; assay: crystal structure; co-crystallised: 240 μM deP Aurora A 122-403 + 1.0 mM AT9283 + 250 μM Mb; sitting drop, 18°C, 0.1 M Bis-Tris pH 5.5, 0.2 M magnesium chloride, 19% (w/v) PEG-3350

k2 (plot of kobs vs concentration, fast phase) (Aurora A [1]): 800000 ± 200000 M⁻¹ s⁻¹
k-2 (plot of kobs vs concentration, fast phase) (Aurora A [1]): 50 ± 8 s⁻¹
kobs of slow phase, plateau (k3+k-3) (Aurora A [1]): around 21 ± 1 s^−1
Molecule: mant-ATP

k2, bimolecular rate constant (slope of kobs,Binding vs concentration, fast phase) ([2]; 10°C): 1.1e+06 ± 300000 M⁻¹ s⁻¹
k-2, dissociation from intercept of binding plot (kdiss) ([2]; 10°C): 31 ± 2 s⁻¹
weakening of overall affinity by the DFG-in and -out equilibrium (Aurora A [3]): 1.6 fold
Molecule: Cc1ccc(NC(=O)c2ccc(CN3CCN(C)CC3)cc2)cc1Nc1nccc(-c2cccnc2)n1 [Gleevec]

Continued, molecule first:

Molecule: CO[C@@H](C(=O)N1Cc2n[nH]c(NC(=O)c3ccc(N4CCN(C)CC4)cc3)c2C1)c1ccccc1 [Danusertib]
IC50 (Aurora C): 61 nM
k-2 (intercept of kobs,Binding plot) ([2]; 25°C): 4.6 ± 3 s⁻¹
kobs of slow phase, plateau (induced-fit step, k3+k-3) ([2]; 25°C): approximately 16 ± 2 s^−1
weakening of overall affinity by the DFG-in and -out equilibrium (Aurora A [3]): 1.6 fold
tighter binding resulting from the conformational change after drug binding (Aurora A [3]; induced-fit step): four orders of magnitude

Molecule: O=C(Nc1c[nH]nc1-c1nc2ccc(CN3CCOCC3)cc2[nH]1)NC1CC1 [AT9283]
IC50 (Aurora B): 3 nM
slow dissociation, double exponential, fast phase (kobs1 slow-off) [4]: (1.1 ± 0.02) × 10^−2 s^−1
slow dissociation, double exponential, slow phase (kobs2 slow-off) [4]: (0.1 ± 0.01) × 10^−2 s^−1

B1: dephosphorylated Aurora A (122-403) (domain or fragment, human, UniProt O14965 122-403, looked up)
chain: T1 sequence (O14965 122-403)
notes: human Ser/Thr kinase Aurora A, residues 122-403, dephosphorylated (confirmed by mass spectrometry); E. coli BL21(DE3) is named only for the isotope-labelled samples; also called deP Aurora A^122-403; AurA; source: expressed and purified as described before (Zorba et al., 2014)
binding result [5]: binds
